Data published in patent publication US20250000896A1, “Xenon Gas for Use in the Treatment of Gliomas” (Universität Heidelberg, priority 2021, published 2025).

Experiments:
Format in all cases: cell-based
U251 glioma cells = assay: Colony formation assay (CFA) with U251 glioma cells after irradiation; details: 50% Xe for 60 min after irradiation and/or 25 μM memantine, colonies counted after 11 days
Description: (§1) In radiobiological research, colony formation assay (CFA) represents an established method to evaluate the in-vitro-effects of radiation treatment (RT) alone or in combination with additional substances on cell survival and reproduction capability. To provide a method for investigation of modulating properties mediated by gaseous agents in combination with ionizing radiation treatment, a system to combine CFA with gas exposure before, during or after radiation treatment was designed. Subsequently CFA were performed with established glioma cell lines U87MG and U251, as well as cervical cancer-derived cell line HeLa investigating the effect of xenon gas exposure on cell survival after radiation treatment. Expression of AMPAR and NMDAR subunits was tested by immunofluorescence staining. In vitro colony formation assay (CFA) comparing surviving fractions of irradiated U87MG cells and U251 cells exposed to 50% Xe and/or treated with 25 μM of memantine to a control group were performed. Additionally, a CFA comparing surviving fractions of irradiated HeLa cells exposed to 50% Xe to a control group was implemented. CFA were carried out in triplets of T25-flasks for each irradiation dose of 0, 2, 4, 6 and 8 Gy in three (U87MG and HeLa) or four (U251) independent repetitions. U87MG and HeLa cells were cultured in Dulbecco's modified eagle's medium (DMEM; U87: Biochrom AG, Berlin, Germany; HeLa: Thermo Fisher Scientific, Waltham, US) and U251 cells were cultured in Gibco Roswell Park Memorial Institute (RPMI) 1640 medium+GlutaMAX™ (Thermo Fisher Scientific, Waltham, US). Cells were stored in an incubator (ambient air with additional 5% CO2) and split regularly before confluence. In preparation of CFA, cells were dissolved, counted, and distributed into T25-flasks starting with 1000 cells (U87MG), 100 cells (U251), or 200 cells (HeLa) per flask for non-irradiated groups increasing the cell count with irradiation dose to 1000, 2000, 5000, and 10.000 cells (U87MG), 200, 600, 2000, and 5000 cells (U251), or 400, 800, 2000, and 4000 cells (HeLa), respectively. Cells were allowed to attach for 14 to 16 h (U87MG), for 4 h (U251), or for 5.5 h (HeLa) and 108 μl of either memantine-hydrochloride 0.25 mg/ml (Sigma-Aldrich Corp., St. Louis, USA) or distilled water as placebo were added 60 min at U87MG and 90 min at U251 and HeLa prior to irradiation, resulting in 25 μM memantine-hydrochloride per flask. For irradiation, 15 flasks (5 triplets, each for 0, 2, 4, 6, 8 Gy) were placed alongside the margin of eight acrylic glass plates (thickness 1.0 cm) with two plates further added on top to balance secondary electrons. Vertical position to the gantry of a conventional linear accelerator (Elekta Synergy, Elekta AB, Stockholm, Sweden) was allocated by wall-mounted lasers marking the center of the flasks' caps membrane, horizontal position was validated by opening the linear accelerator's light field (32.0×32.0 cm) and by positioning the plates centrally inside the field. The triplet from the 0 Gy dose-group was removed immediately after placement (sham-irradiation) and exchanged with dummy T25-flasks filled with water. After delivery of 181.2 MU of 6 MeV photons, equivalent to an effective dose of 2 Gy, the 2 Gy-triplet was removed and replaced by dummy flasks. This process was repeated until a cumulative dose of 8 Gy for the last triplet was reached. Gas exposure was performed after the radiation treatment described above. The flasks were exposed to a preformed gas mixture for 60 minutes containing either 75% Xe, 20% O2 and 5% CO2 for the xenon group or a mixture with the 75% Xe-proportion replaced by nitrogen (N2) for the memantine group and the control group. […] After exposure, the flasks membrane caps were sealed with custom PVC-plugs and stored in a heat cabinet for 24 hours. Finally, the membrane caps' plugs were removed and the flasks were transferred into the 5% CO2-incubator remaining untouched for 13 days (U87MG), 10 days (U251), or 10 days (HeLa). […]

U87MG glioma cells = assay: Colony formation assay (CFA) with U87MG glioma cells after irradiation; details: for mean survival fraction in relation to the control group: 50% Xe for 60 min after irradiation and/or 25 μM memantine, colonies counted after 14 days
Description: as §1

[1] = system: HeLa cervical cancer cells; assay: Colony formation assay (CFA) with HeLa cervical cancer cells after irradiation; details: for mean survival fraction in relation to the control group: 50% Xe for 60 min after irradiation, colonies counted after 11 days
Description: In radiobiological research, colony formation assay (CFA) represents an established method to evaluate the in-vitro-effects of radiation treatment (RT) alone or in combination with additional substances on cell survival and reproduction capability.
To provide a method for investigation of modulating properties mediated by gaseous agents in combination with ionizing radiation treatment, a system to combine CFA with gas exposure before, during or after radiation treatment was designed. Subsequently CFA were performed with established glioma cell lines U87MG and U251, as well as cervical cancer-derived cell line HeLa investigating the effect of xenon gas exposure on cell survival after radiation treatment. Expression of AMPAR and NMDAR subunits was tested by immunofluorescence staining.
In vitro colony formation assay (CFA) comparing surviving fractions of irradiated U87MG cells and U251 cells exposed to 50% Xe and/or treated with 25 μM of memantine to a control group were performed. Additionally, a CFA comparing surviving fractions of irradiated HeLa cells exposed to 50% Xe to a control group was implemented. CFA were carried out in triplets of T25-flasks for each irradiation dose of 0, 2, 4, 6 and 8 Gy in three (U87MG and HeLa) or four (U251) independent repetitions.
U87MG and HeLa cells were cultured in Dulbecco's modified eagle's medium (DMEM; U87: Biochrom AG, Berlin, Germany; HeLa: Thermo Fisher Scientific, Waltham, US) and U251 cells were cultured in Gibco Roswell Park Memorial Institute (RPMI) 1640 medium+GlutaMAX™ (Thermo Fisher Scientific, Waltham, US). Cells were stored in an incubator (ambient air with additional 5% CO2) and split regularly before confluence. In preparation of CFA, cells were dissolved, counted, and distributed into T25-flasks starting with 1000 cells (U87MG), 100 cells (U251), or 200 cells (HeLa) per flask for non-irradiated groups increasing the cell count with irradiation dose to 1000, 2000, 5000, and 10.000 cells (U87MG), 200, 600, 2000, and 5000 cells (U251), or 400, 800, 2000, and 4000 cells (HeLa), respectively. Cells were allowed to attach for 14 to 16 h (U87MG), for 4 h (U251), or for 5.5 h (HeLa) and 108 μl of either memantine-hydrochloride 0.25 mg/ml (Sigma-Aldrich Corp., St. Louis, USA) or distilled water as placebo were added 60 min at U87MG and 90 min at U251 and HeLa prior to irradiation, resulting in 25 μM memantine-hydrochloride per flask.
For irradiation, 15 flasks (5 triplets, each for 0, 2, 4, 6, 8 Gy) were placed alongside the margin of eight acrylic glass plates (thickness 1.0 cm) with two plates further added on top to balance secondary electrons. Vertical position to the gantry of a conventional linear accelerator (Elekta Synergy, Elekta AB, Stockholm, Sweden) was allocated by wall-mounted lasers marking the center of the flasks' caps membrane, horizontal position was validated by opening the linear accelerator's light field (32.0×32.0 cm) and by positioning the plates centrally inside the field. The triplet from the 0 Gy dose-group was removed immediately after placement (sham-irradiation) and exchanged with dummy T25-flasks filled with water. After delivery of 181.2 MU of 6 MeV photons, equivalent to an effective dose of 2 Gy, the 2 Gy-triplet was removed and replaced by dummy flasks. This process was repeated until a cumulative dose of 8 Gy for the last triplet was reached.
Gas exposure was performed after the radiation treatment described above. The flasks were exposed to a preformed gas mixture for 60 minutes containing either 75% Xe, 20% O2 and 5% CO2 for the xenon group or a mixture with the 75% Xe-proportion replaced by nitrogen (N2) for the memantine group and the control group. […] After exposure, the flasks membrane caps were sealed with custom PVC-plugs and stored in a heat cabinet for 24 hours. Finally, the membrane caps' plugs were removed and the flasks were transferred into the 5% CO2-incubator remaining untouched for 13 days (U87MG), 10 days (U251), or 10 days (HeLa). […]

| SMILES | mean survival fraction in relation to the control group (U251 glioma cells; radiation dose 0 Gy (sham)) [%] | mean survival fraction in relation to the control group (U251 glioma cells; radiation dose 2 Gy) [%] | mean survival fraction in relation to the control group (U251 glioma cells; radiation dose 4 Gy) [%] | mean survival fraction in relation to the control group (U251 glioma cells; radiation dose 6 Gy) [%] | mean survival fraction in relation to the control group (U251 glioma cells; radiation dose 8 Gy) [%] | difference in survival to the groups without added memantine (U87MG glioma cells; 25 μM memantine, 0 to 8 Gy, t-test) | mean survival fraction in relation to the control group (U87MG glioma cells; radiation dose 0 Gy (sham)) [%] | mean survival fraction in relation to the control group (U87MG glioma cells; radiation dose 2 Gy) [%] | mean survival fraction in relation to the control group (U87MG glioma cells; radiation dose 4 Gy) [%] | mean survival fraction in relation to the control group (U87MG glioma cells; radiation dose 6 Gy) [%] | mean survival fraction in relation to the control group (U87MG glioma cells; radiation dose 8 Gy) [%] | impact of xenon exposure after irradiation on HeLa cell survival ([1]; 50% Xe after irradiation, except at a very high radiation dose level) | mean survival fraction in relation to the control group ([1]; radiation dose 0 Gy (sham)) [%] | mean survival fraction in relation to the control group ([1]; radiation dose 2 Gy) [%] | mean survival fraction in relation to the control group ([1]; radiation dose 4 Gy) [%] | mean survival fraction in relation to the control group ([1]; radiation dose 6 Gy) [%] | mean survival fraction in relation to the control group ([1]; radiation dose 8 Gy) [%] |
| --- | --- | --- | --- | --- | --- | --- | --- | --- | --- | --- | --- | --- | --- | --- | --- | --- | --- |
| CC12CC3CC(C)(C1)CC(N)(C3)C2 [memantine] | 72.3 | 34.1 | 11.9 | 3.8 | 1.0 | no significant differences | 93.8 | 46.8 | 28.5 | 15.9 | 8.0 |  |  |  |  |  |  |
| [Xe] [xenon] | 78.7 | 37.5 | 14.6 | 4.2 | 1.0 |  | 94.2 | 41.5 | 25.0 | 10.3 | 4.7 | no impact | 114.7 | 71.1 | 23.5 | 7.1 | 2.0 |
